{"source": "patent US20050090466A1", "about": "“Inhibitors of PACE4 for the treatment of arthritis” (Pharmacia & Upjohn Company LLC, priority 2003, published 2005)", "key": {"[1]": {"system": "PACE4 mRNA", "experiment": "Aggrecanase activity in TNF-α and OSM stimulated cultured human chondrocytes after PACE4 RNAi", "format": "cell-based", "conditions": "100 nM dsRNA; human chondrocytes stimulated with TNF-α and OSM; vs stimulated controls; FIG. 1", "method": "(§1) The sequence CGGCAAUGAUUAUGACCCAtt (SEQ ID NO. 2) was selected as a sense strand for dsRNA. The corresponding antisense strand, UGGGUCAUAAUCAUUGCCGtt, (SEQ ID NO. 3) was also selected. dsRNA was synthesized commercially (Ambion, Austin, Tex. 78744-1832 USA) and 100 nM was introduced into cultured human chondrocytes and human cartilage stimulated with TNF-α and Oncostatin M (OSM). It is known that stimulation of cartilage or chondrocytes with TNF-α and OSM will induce cartilage degradation and upregulate aggrecanase. Nonsense dsRNA, that is, dsRNA with the same […], but scrambled in sequence, were introduced into cultured human chondrocytes and human cartilage explants as controls. The control groups are not expected to induce RNAi, since the dsRNA is not expected to produce an inhibitory effect on mRNA. […] 2 and SEQ ID NO. 3."}, "[2]": {"system": "PACE4 mRNA", "experiment": "Electrophoresis gel of aggrecan degradation products in TNF/OSM treated cartilage explants", "format": "cell-based, human", "conditions": "100 nM dsRNA, vs controls, FIG. 2", "method": "FIG. 2 depicts an electrophoresis gel showing aggrecan-degradation products in untreated (lane 1), TNF/OSM treated control (lane 2) and TNF/OSM treated, PACE4 siRNA treated cartilage explants; and\nas §1\nReferring now to FIG. 2, the aggrecanase mediated cleavage of aggrecan, shown by the aggrecan derived peptide neopitope fragment AGEG (SEQ ID NO. 10) and the aggrecan derived peptide neopepitope fragment ARGS (SEQ ID NO. 11) was reduced with interfering dsRNA, as compared to controls."}, "[3]": {"system": "PACE4 mRNA", "experiment": "Glycosaminoglycan (GAG) release from TNF/OSM treated cartilage explants into the supernatant", "format": "cell-based, human", "conditions": "100 nM dsRNA, vs nonsense dsRNA, FIG. 3", "description": "FIG. 3 is a bar graph showing glycosaminoglycan (GAG) release from cartilage explants into the supernatant is reduced in TNF/OSM treated cartilage explants with the addition of siRNA of SEQ ID NO. 2 and SEQ ID NO. 3 (narrow shaded bar) as compared with normal control (unshaded bar) and TNF/OSM treated cartilage explants with nonsense dsRNA.\nas §1\nGlycosaminoglycan (GAG) release from proteoglycan and depressed proteoglycan synthesis are thought to be correlated with cartilage destruction in arthritis. […]"}}, "data": [{"substance": "siRNA of SEQ ID NO. 2 and SEQ ID NO. 3: dsRNA: sense strand CGGCAAUGAUUAUGACCCAtt (SEQ ID NO. 2), antisense strand UGGGUCAUAAUCAUUGCCGtt (SEQ ID NO. 3); inhibits PACE4 mRNA (sense CGGCAAUGAUUAUGACCCATT; antisense UGGGUCAUAAUCAUUGCCGTT; dsRNA with lower-case tt overhangs, chemistry of tt not given here, further chemistry not given here)", "values": [{"measurement": "reduction in aggrecanase activity", "setting": "[1]", "value": "greater than eighty percent reduction"}, {"measurement": "aggrecanase mediated cleavage of aggrecan (neoepitope fragments AGEG and ARGS)", "setting": "[2]", "value": "reduced"}, {"measurement": "glycosaminoglycan (GAG) release from cartilage explants into the supernatant", "setting": "[3]", "value": "reduced"}]}]}
